Data reported in ChEMBL document CHEMBL3991601, “The target landscape of clinical kinase drugs” (Science, 2017).
Active and inactive are the calls of the source.

How the values were obtained:
[1] = target: Membrane-associated progesterone receptor component 1 (Homo sapiens, UniProt O00264)
[2] = target: T1, Protein kinase C zeta type (Homo sapiens, UniProt Q05513)
T1 sequence (Q05513 whole entry): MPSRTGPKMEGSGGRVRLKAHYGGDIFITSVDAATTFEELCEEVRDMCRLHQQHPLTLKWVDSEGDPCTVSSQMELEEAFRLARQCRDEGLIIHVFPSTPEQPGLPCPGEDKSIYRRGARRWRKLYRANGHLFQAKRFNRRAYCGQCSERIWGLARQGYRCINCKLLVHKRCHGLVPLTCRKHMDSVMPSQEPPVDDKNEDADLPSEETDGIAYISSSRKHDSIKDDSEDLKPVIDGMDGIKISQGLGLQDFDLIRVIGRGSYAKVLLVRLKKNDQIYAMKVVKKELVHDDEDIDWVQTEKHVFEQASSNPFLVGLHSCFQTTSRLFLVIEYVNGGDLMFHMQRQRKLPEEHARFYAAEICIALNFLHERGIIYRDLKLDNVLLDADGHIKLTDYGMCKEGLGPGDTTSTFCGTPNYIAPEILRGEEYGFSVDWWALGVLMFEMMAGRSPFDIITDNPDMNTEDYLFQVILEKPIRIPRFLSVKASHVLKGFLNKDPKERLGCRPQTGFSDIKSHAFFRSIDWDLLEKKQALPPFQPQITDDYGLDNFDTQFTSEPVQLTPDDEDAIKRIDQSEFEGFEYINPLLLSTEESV

[3] = target: Serine/threonine-protein kinase PAK 6 (Homo sapiens, UniProt Q9NQU5)
Misshapen-like kinase 1 = Misshapen-like kinase 1 (Homo sapiens, UniProt Q8N4C8)
[4] = target: T2, Cyclin-dependent kinase-like 5 (Homo sapiens, UniProt O76039)
T2 sequence (O76039 whole entry): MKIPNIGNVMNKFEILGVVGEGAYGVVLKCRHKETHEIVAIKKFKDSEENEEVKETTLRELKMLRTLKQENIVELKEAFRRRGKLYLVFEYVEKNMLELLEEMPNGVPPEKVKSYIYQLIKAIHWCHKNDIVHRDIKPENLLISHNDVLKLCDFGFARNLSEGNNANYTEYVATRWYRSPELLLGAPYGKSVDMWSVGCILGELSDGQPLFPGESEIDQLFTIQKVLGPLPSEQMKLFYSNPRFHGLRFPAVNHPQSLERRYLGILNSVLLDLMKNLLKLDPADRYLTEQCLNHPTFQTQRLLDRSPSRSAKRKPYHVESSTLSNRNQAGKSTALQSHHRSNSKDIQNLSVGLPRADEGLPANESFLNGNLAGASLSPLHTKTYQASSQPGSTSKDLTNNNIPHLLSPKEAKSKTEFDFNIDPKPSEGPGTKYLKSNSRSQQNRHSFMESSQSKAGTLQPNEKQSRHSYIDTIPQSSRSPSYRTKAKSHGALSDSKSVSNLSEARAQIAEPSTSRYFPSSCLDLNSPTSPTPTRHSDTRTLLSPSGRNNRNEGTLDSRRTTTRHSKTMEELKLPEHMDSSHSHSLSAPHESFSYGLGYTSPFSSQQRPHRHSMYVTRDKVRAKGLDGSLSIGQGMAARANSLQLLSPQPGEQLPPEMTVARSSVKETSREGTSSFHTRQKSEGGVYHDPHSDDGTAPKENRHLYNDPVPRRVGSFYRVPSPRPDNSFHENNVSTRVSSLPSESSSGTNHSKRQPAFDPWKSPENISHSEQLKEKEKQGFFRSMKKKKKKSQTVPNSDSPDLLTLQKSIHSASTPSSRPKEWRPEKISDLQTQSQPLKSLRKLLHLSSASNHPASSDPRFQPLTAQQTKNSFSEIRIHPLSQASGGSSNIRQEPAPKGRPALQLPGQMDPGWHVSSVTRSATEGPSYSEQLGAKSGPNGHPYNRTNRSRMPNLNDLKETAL

[5] = target: Serine/threonine-protein kinase 24 (Homo sapiens, UniProt Q9Y6E0)
[6] = target: Choline-phosphate cytidylyltransferase A (Homo sapiens, UniProt P49585)
[7] = target: Cell division cycle 7-related protein kinase (Homo sapiens, UniProt O00311)
[8] = target: Mitogen-activated protein kinase 14 (Homo sapiens, UniProt Q16539)
[9] = target: Hepatocyte growth factor receptor (Homo sapiens, UniProt P08581)
[10] = target: Cyclin-dependent kinase 17 (Homo sapiens, UniProt Q00537)
[11] = target: Protein kinase C theta type (Homo sapiens, UniProt Q04759)
[12] = target: T3, Dual specificity protein kinase TTK (Homo sapiens, UniProt P33981)
T3 sequence (P33981 whole entry): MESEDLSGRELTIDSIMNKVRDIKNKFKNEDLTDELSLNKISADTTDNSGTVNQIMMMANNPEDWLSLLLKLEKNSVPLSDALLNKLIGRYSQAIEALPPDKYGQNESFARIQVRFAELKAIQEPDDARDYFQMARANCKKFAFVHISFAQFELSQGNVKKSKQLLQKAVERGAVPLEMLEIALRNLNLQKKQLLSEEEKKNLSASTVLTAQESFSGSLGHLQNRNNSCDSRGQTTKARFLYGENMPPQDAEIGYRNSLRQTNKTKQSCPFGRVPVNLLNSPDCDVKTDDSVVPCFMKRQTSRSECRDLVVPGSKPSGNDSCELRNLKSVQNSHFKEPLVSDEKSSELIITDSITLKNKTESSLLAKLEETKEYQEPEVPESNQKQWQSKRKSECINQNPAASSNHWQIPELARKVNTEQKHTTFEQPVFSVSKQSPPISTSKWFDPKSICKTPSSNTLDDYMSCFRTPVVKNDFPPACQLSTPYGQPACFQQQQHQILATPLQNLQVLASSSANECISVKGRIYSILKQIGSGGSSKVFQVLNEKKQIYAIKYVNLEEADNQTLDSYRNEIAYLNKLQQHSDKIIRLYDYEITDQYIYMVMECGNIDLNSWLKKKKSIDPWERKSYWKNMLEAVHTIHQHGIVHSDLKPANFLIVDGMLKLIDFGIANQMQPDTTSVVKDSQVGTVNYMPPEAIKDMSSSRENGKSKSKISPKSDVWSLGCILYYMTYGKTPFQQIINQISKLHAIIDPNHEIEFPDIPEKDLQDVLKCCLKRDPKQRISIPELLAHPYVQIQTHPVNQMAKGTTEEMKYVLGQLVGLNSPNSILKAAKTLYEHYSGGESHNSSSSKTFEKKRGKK
Note: in the data inactive means no Kd found up to 30 µM.

Misshapen-like kinase 1, sequence (Q8N4C8 whole entry): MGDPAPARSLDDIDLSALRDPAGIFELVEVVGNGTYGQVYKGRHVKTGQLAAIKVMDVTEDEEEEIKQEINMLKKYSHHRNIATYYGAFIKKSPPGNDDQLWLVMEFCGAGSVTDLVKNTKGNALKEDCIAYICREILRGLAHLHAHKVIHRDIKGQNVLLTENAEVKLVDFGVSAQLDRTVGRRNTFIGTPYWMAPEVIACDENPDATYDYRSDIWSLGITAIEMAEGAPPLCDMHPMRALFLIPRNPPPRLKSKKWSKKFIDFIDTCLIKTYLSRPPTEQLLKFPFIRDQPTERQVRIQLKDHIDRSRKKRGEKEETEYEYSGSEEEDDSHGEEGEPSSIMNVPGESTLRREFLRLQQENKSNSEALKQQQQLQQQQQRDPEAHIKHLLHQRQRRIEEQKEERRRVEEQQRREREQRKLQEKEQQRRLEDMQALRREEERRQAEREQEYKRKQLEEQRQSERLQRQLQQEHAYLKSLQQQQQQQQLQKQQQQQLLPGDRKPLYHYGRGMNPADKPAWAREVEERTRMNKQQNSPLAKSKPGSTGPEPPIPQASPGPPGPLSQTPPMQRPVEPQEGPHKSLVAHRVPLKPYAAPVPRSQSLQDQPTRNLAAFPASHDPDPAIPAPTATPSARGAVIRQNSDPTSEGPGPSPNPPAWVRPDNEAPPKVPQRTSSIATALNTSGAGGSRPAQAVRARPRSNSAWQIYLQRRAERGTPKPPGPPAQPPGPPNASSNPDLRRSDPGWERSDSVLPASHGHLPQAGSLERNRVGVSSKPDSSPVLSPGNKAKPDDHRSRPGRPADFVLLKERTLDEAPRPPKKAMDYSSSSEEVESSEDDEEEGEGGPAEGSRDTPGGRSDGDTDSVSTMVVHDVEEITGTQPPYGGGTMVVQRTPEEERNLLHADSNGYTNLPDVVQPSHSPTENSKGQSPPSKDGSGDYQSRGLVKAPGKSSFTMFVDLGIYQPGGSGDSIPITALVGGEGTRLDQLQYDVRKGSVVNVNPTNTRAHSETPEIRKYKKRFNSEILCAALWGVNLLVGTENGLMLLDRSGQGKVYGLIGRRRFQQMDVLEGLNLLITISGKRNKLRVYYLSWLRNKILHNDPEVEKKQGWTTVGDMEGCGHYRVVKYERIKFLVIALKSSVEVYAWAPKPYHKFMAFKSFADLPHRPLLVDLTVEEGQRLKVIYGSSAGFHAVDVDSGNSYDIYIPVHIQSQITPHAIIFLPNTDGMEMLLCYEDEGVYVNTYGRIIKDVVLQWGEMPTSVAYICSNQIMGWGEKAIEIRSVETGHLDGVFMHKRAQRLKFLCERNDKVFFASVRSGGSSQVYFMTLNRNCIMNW
Membrane-associated progesterone receptor component 1, sequence (O00264 whole entry): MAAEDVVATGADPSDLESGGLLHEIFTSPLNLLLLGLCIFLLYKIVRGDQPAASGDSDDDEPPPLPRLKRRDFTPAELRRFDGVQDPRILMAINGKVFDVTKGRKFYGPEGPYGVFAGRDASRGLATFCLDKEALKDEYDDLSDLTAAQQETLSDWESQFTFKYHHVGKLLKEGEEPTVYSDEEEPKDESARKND
Cell division cycle 7-related protein kinase, sequence (O00311 whole entry): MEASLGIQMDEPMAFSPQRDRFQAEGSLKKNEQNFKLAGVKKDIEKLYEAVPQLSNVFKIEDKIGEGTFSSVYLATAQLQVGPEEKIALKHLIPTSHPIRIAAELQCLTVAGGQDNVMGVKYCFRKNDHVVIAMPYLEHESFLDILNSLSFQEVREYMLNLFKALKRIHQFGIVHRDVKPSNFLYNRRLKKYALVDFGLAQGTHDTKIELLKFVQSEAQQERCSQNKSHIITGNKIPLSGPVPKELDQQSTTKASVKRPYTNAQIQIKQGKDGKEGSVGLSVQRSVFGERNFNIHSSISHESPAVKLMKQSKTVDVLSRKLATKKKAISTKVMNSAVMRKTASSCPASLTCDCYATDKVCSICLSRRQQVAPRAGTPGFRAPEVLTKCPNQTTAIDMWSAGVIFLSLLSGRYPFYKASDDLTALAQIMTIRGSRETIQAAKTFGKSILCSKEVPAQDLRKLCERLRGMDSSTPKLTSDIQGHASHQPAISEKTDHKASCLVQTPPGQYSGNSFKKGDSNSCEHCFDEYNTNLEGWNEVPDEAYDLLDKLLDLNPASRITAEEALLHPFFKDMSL
Serine/threonine-protein kinase 24, sequence (Q9Y6E0 whole entry): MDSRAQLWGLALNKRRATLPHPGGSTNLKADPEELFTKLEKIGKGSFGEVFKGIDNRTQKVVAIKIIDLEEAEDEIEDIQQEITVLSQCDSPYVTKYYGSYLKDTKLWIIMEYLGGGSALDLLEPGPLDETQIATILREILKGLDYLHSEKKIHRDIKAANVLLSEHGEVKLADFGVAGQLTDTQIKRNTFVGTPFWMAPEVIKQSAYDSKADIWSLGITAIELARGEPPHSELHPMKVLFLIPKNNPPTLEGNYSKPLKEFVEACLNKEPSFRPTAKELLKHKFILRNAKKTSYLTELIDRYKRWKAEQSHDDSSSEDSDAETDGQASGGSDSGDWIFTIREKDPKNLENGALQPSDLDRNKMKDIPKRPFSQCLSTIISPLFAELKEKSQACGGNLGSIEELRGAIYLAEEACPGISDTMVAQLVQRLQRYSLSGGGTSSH
Serine/threonine-protein kinase PAK 6, sequence (Q9NQU5 whole entry): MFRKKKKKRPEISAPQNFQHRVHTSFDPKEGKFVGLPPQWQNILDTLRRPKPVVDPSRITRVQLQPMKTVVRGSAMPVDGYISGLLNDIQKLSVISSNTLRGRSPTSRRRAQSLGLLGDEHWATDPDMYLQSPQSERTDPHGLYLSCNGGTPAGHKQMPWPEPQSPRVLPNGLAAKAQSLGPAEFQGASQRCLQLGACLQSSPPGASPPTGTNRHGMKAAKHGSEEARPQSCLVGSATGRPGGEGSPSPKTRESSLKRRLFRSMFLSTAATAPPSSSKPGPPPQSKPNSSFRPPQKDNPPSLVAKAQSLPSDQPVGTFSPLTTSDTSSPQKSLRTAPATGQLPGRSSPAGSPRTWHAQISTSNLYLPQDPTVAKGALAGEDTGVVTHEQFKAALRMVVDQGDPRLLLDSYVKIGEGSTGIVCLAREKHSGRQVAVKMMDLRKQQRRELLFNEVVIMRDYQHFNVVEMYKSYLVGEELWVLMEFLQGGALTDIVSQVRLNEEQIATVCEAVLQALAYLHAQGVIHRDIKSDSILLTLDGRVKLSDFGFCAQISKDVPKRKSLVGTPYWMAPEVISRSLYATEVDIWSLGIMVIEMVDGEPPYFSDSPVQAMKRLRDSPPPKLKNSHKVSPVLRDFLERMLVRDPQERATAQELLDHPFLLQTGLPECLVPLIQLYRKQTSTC
Protein kinase C theta type, sequence (Q04759 whole entry): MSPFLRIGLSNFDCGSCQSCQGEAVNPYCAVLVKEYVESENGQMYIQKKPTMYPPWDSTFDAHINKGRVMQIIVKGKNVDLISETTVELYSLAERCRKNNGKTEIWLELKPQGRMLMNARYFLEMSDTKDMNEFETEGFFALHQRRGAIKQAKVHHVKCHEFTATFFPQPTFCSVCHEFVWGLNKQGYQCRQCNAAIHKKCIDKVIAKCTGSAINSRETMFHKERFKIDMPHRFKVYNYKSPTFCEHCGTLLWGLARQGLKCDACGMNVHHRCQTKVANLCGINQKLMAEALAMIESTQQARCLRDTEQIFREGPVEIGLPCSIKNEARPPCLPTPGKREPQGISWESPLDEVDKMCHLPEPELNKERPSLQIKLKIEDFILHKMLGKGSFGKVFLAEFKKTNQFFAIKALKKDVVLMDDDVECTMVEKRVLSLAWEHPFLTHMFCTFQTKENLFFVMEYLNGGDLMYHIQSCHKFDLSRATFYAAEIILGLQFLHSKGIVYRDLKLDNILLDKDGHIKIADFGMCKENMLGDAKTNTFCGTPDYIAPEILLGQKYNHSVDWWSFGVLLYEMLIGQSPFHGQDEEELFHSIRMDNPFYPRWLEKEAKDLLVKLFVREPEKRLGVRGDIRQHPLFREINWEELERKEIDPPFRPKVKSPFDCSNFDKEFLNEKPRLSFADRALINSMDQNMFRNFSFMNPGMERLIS
Cyclin-dependent kinase 17, sequence (Q00537 whole entry): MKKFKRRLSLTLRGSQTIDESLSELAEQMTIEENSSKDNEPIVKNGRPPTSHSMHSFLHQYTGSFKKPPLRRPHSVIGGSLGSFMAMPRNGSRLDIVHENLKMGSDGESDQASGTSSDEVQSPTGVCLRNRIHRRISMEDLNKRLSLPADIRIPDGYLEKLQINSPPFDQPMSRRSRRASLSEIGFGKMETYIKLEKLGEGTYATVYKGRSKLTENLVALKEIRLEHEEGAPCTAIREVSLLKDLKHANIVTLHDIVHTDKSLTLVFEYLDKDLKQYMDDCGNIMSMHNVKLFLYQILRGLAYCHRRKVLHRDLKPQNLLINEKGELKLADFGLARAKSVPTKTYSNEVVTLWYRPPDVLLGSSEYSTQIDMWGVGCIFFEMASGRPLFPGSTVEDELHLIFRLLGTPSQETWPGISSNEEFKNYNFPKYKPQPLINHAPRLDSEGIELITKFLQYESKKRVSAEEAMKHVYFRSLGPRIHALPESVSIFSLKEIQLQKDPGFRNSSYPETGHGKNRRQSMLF
Mitogen-activated protein kinase 14, sequence (Q16539 whole entry): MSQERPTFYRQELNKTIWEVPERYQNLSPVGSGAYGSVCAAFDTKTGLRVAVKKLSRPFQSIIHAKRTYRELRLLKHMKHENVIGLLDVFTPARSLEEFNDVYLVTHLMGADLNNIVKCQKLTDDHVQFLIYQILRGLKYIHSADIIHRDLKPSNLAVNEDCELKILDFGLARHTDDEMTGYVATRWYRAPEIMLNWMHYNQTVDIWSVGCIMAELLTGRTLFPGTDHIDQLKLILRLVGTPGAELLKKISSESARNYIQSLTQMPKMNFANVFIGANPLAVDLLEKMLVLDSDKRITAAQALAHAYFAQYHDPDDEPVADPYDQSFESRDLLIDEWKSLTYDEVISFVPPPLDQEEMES

SMILES	Kd [1]	Kd [2]	Kd [3]	Kd (Misshapen-like kinase 1)	Kd [4]	Kd [5]	Kd [6]	Kd [7]	Kd [8]	Kd [9]	Kd [10]	Kd [11]	Kd [12]
CCc1cnn2c(NCc3ccc[n+]([O-])c3)cc(N3CCCC[C@H]3CCO)nc12 [DINACICLIB]	> 30 µM (inactive)	> 30 µM (inactive)	> 30 µM (inactive)	> 30 µM (inactive)	> 30 µM (inactive)	> 30 µM (inactive)	> 30 µM (inactive)	–	–	–	–	–	–
O=C(O)[C@]1(Cc2cccc(Nc3nccs3)n2)CC[C@@H](Oc2cccc(Cl)c2F)CC1 [MK-5108]	> 30 µM (inactive)	> 30 µM (inactive)	> 30 µM (inactive)	> 30 µM (inactive)	> 30 µM (inactive)	> 30 µM (inactive)	> 30 µM (inactive)	> 30 µM (inactive)	> 30 µM (inactive)	> 30 µM (inactive)	> 30 µM (inactive)	> 30 µM (inactive)	–
CN(C)C(=O)c1cc2cnc(Nc3ccc(N4CCNCC4)cn3)nc2n1C1CCCC1 [RIBOCICLIB]	> 30 µM (inactive)	–	–	–	> 30 µM (inactive)	> 30 µM (inactive)	> 30 µM (inactive)	–	> 30 µM (inactive)	> 30 µM (inactive)	–	–	> 30 µM (inactive)
Cc1cc(Nc2cc(N3CCN(C)CC3)nc(/C=C/c3ccccc3)n2)n[nH]1 [ENMD-2076]	> 30 µM (inactive)	–	> 30 µM (inactive)	–	–	> 30 µM (inactive)	> 30 µM (inactive)	–	–	–	–	–	> 30 µM (inactive)
Cc1ccc(NC(=O)c2ccc(CN3CC[C@H](N(C)C)C3)c(C(F)(F)F)c2)cc1Nc1nccc(-c2cncnc2)n1 [BAFETINIB]	> 30 µM (inactive)	> 30 µM (inactive)	–	–	> 30 µM (inactive)	–	> 30 µM (inactive)	–	0.536 µM (active)	> 30 µM (inactive)	> 30 µM (inactive)	> 30 µM (inactive)	> 30 µM (inactive)
CNC(=O)c1cc(Oc2ccc(NC(=O)Nc3ccc(Cl)c(C(F)(F)F)c3)c(F)c2)ccn1 [REGORAFENIB]	> 30 µM (inactive)	–	–	–	–	> 30 µM (inactive)	> 30 µM (inactive)	–	0.705 µM (active)	> 30 µM (inactive)	0.719 µM (active)	> 30 µM (inactive)	3.92 µM
CN1CC[C@@H](c2c(O)cc(O)c3c(=O)cc(-c4ccccc4Cl)oc23)[C@@H]1CO	–	–	> 30 µM (inactive)	> 30 µM (inactive)	0.024 µM	> 30 µM (inactive)	–	> 30 µM (inactive)	> 30 µM (inactive)	6.67 µM	> 30 µM (inactive)	> 30 µM (inactive)	–
COc1cc2nccc(Oc3ccc(NC(=O)Nc4cc(C)on4)c(Cl)c3)c2cc1OC [TIVOZANIB]	> 30 µM (inactive)	> 30 µM (inactive)	> 30 µM (inactive)	> 30 µM (inactive)	> 30 µM (inactive)	> 30 µM (inactive)	> 30 µM (inactive)	–	> 30 µM (inactive)	–	> 30 µM (inactive)	> 30 µM (inactive)	–
CNC(=O)c1ccc(-c2cnc3ncc(Cc4ccc5ncccc5c4)n3n2)cc1F [CAPMATINIB]	–	> 30 µM (inactive)	> 30 µM (inactive)	> 30 µM (inactive)	2.04 µM	–	–	> 30 µM (inactive)	> 30 µM (inactive)	–	> 30 µM (inactive)	> 30 µM (inactive)	–
CC[C@@H]1C(=O)N(C)c2cnc(Nc3ccc(C(=O)N[C@H]4CC[C@H](N5CCN(CC6CC6)CC5)CC4)cc3OC)nc2N1C(C)C [VOLASERTIB]	> 30 µM (inactive)	–	–	> 30 µM (inactive)	–	> 30 µM (inactive)	> 30 µM (inactive)	–	> 30 µM (inactive)	> 30 µM (inactive)	> 30 µM (inactive)	> 30 µM (inactive)	–
Cc1cc2c(F)c(Oc3ncnn4cc(OC[C@@H](C)OC(=O)[C@H](C)N)c(C)c34)ccc2[nH]1 [BRIVANIB ALANINATE]	–	> 30 µM (inactive)	> 30 µM (inactive)	–	> 30 µM (inactive)	> 30 µM (inactive)	> 30 µM (inactive)	–	> 30 µM (inactive)	> 30 µM (inactive)	> 30 µM (inactive)	> 30 µM (inactive)	> 30 µM (inactive)
Cc1cc([C@@H](C)Nc2ccccc2C(=O)O)c2nc(N3CCOCC3)cc(=O)n2c1 [AZD-6482]	> 30 µM (inactive)	> 30 µM (inactive)	> 30 µM (inactive)	–	–	> 30 µM (inactive)	> 30 µM (inactive)	–	> 30 µM (inactive)	> 30 µM (inactive)	> 30 µM (inactive)	> 30 µM (inactive)	> 30 µM (inactive)
Cc1nc(N)sc1-c1ccnc(Nc2ccc(N3CCOCC3)cc2)n1 [CYC-116]	> 30 µM (inactive)	–	–	–	–	> 30 µM (inactive)	> 30 µM (inactive)	–	> 30 µM (inactive)	–	0.007 µM (active)	–	0.016 µM
O=C(c1ccc(F)c(F)c1Nc1ccc(I)cc1F)N1CC(O)([C@@H]2CCCCN2)C1 [COBIMETINIB]	> 30 µM (inactive)	–	> 30 µM (inactive)	> 30 µM (inactive)	> 30 µM (inactive)	> 30 µM (inactive)	> 30 µM (inactive)	–	> 30 µM (inactive)	> 30 µM (inactive)	> 30 µM (inactive)	> 30 µM (inactive)	–
Cc1ccc(S(=O)(=O)Nc2nc3ccccc3nc2Nc2ccc3nsnc3c2)cc1	–	> 30 µM (inactive)	–	–	> 30 µM (inactive)	> 30 µM (inactive)	–	–	> 30 µM (inactive)	–	> 30 µM (inactive)	> 30 µM (inactive)	> 30 µM (inactive)
C=CC(=O)N1CCC(Oc2cc3c(Nc4ccc(Cl)c(Cl)c4F)ncnc3cc2OC)CC1 [POZIOTINIB]	–	> 30 µM (inactive)	> 30 µM (inactive)	> 30 µM (inactive)	> 30 µM (inactive)	> 30 µM (inactive)	> 30 µM (inactive)	–	> 30 µM (inactive)	0.794 µM	> 30 µM (inactive)	–	–
